Laboratory results reported in patent US10479777B2, “Herbicidal azines” (BASF SE, priority 2013, dated 2019).

Assays:
Assay type in all cases: in vivo
[1] = system: Echinocloa crus-galli; experiment: greenhouse test, pre-emergence treatment; conditions: scale from 0 to 100
Excerpt: (§1) The culture containers used were plastic flowerpots containing loamy sand with approximately 3.0% of humus as the substrate. The seeds of the test plants were sown separately for each species.
(§2) For the pre-emergence treatment, the active ingredients, which had been suspended or emulsified in water, were applied directly after sowing by means of finely distributing nozzles. The containers were irrigated gently to promote germination and growth and subsequently covered with transparent plastic hoods until the plants had rooted. This cover caused uniform germination of the test plants, unless this had been impaired by the active ingredients. For the post-emergence treatment, the test plants were first grown to a height of 3 to 15 cm, depending on the plant habit, and only then treated with the active ingredients which had been suspended or emulsified in water. For this purpose, the test plants were either sown directly and grown in the same containers, or they were first grown separately as seedlings and transplanted into the test containers a few days prior to treatment.
(§3) Depending on the species, the plants were kept at 10-25° C. or 20-35° C., respectively. The test period extended over 2 to 4 weeks. During this time, the plants were tended, and their response to the individual treatments was evaluated.
(§4) Evaluation was carried out using a scale from 0 to 100. 100 means no emergence of the plants, or complete destruction of at least the aerial moieties, and 0 means no damage, or normal course of growth. A moderate herbicidal activity is given at values of at least 60, a good herbicidal activity is given at values of at least 70, and a very good herbicidal activity is given at values of at least 85.
(§5) The plants used in the greenhouse experiments were of the following species: […]

[2] = system: Polygonum convolvulus; experiment: greenhouse test, pre-emergence treatment; conditions: 62.5 g/ha, scale from 0 to 100
Excerpt: as §1, §2, §3, §4, §5

[3] = system: Setaria viridis; experiment: greenhouse test, pre-emergence treatment; conditions: scale from 0 to 100
Excerpt: as §1, §2, §3, §4, §5

[4] = system: Amaranthus retroflexus; experiment: greenhouse test, pre-emergence treatment; conditions: scale from 0 to 100
Excerpt: as §1, §2, §3, §4, §5

[5] = system: Abutilon theophrasti; experiment: greenhouse test, post-emergence treatment; conditions: scale from 0 to 100
Excerpt: as §1, §2, §3, §4, §5

[6] = system: Amaranthus retroflexus; experiment: greenhouse test, post-emergence treatment; conditions: scale from 0 to 100
Excerpt: as §1, §2, §3, §4, §5

[7] = system: Setaria viridis; experiment: greenhouse test, post-emergence treatment; conditions: scale from 0 to 100
Excerpt: as §1, §2, §3, §4, §5

[8] = system: Apera spica-venti; experiment: greenhouse test, pre-emergence treatment; conditions: scale from 0 to 100
Excerpt: as §1, §2, §3, §4, §5

[9] = system: Poa annua; experiment: greenhouse test, pre-emergence treatment; conditions: scale from 0 to 100
Excerpt: as §1, §2, §3, §4, §5

[10] = system: Stellaria media; experiment: greenhouse test, pre-emergence treatment; conditions: scale from 0 to 100
Excerpt: as §1, §2, §3, §4, §5

[11] = system: Setaria faberi; experiment: greenhouse test, post-emergence treatment; conditions: 500 g/ha, scale from 0 to 100
Excerpt: as §1, §2, §3, §4, §5

CC(C)(F)c1nc(N)nc(Nc2c(F)c(F)nc(F)c2F)n1 [Example 1, 6-(1-Fluoro-1-methyl-ethyl)-N4-(2,3,5,6-tetrafluoro-4-pyridyl)-1,3,5-triazine-2,4-diamine]
herbicidal activity ([1]; 62.5 g/ha): very good (a very good herbicidal activity is given at values of at least 85) | herbicidal activity [2]: very good (a very good herbicidal activity is given at values of at least 85) | herbicidal activity ([3]; 62.5 g/ha): very good (a very good herbicidal activity is given at values of at least 85)

CC(C)(F)c1nc(N)nc(Nc2nc(F)c(F)c(Cl)c2F)n1 [Example 5]
herbicidal activity ([1]; 125 g/ha): very good (a very good herbicidal activity is given at values of at least 85) | herbicidal activity ([4]; 125 g/ha): very good (a very good herbicidal activity is given at values of at least 85) | herbicidal activity ([3]; 125 g/ha): very good (a very good herbicidal activity is given at values of at least 85)

Cc1cccnc1Nc1nc(N)nc(C(F)(F)F)n1 [Example 34]
herbicidal activity ([5]; 2000 g/ha): very good (a very good herbicidal activity is given at values of at least 85) | herbicidal activity ([6]; 2000 g/ha): very good (a very good herbicidal activity is given at values of at least 85) | herbicidal activity ([7]; 2000 g/ha): very good (a very good herbicidal activity is given at values of at least 85)

CC(C)Oc1cccnc1Nc1nc(N)nc(C(F)(F)F)n1 [Example 36]
herbicidal activity ([7]; 1104 g/ha): very good (a very good herbicidal activity is given at values of at least 85)

CC(C)(F)c1nc(N)nc(Nc2nc(F)c(F)c(OS(C)(=O)=O)c2F)n1 [Example 37]
herbicidal activity ([8]; 250 g/ha): good (a good herbicidal activity is given at values of at least 70) | herbicidal activity ([4]; 250 g/ha): very good (a very good herbicidal activity is given at values of at least 85)

Nc1nc(Nc2c(F)c(F)nc(F)c2F)nc(C(F)(F)F)n1 [Example 50]
herbicidal activity ([8]; 500 g/ha): good (a good herbicidal activity is given at values of at least 70) | herbicidal activity ([4]; 500 g/ha): very good (a very good herbicidal activity is given at values of at least 85)

CC(C)(F)c1nc(N)nc(Nc2c(F)cncc2F)n1 [Example 54]
herbicidal activity ([8]; 62 g/ha): very good (a very good herbicidal activity is given at values of at least 85) | herbicidal activity ([4]; 62 g/ha): very good (a very good herbicidal activity is given at values of at least 85)

CC(C)(Cl)c1nc(N)nc(Nc2c(F)c(F)nc(F)c2F)n1 [Example 56]
herbicidal activity ([9]; 125 g/ha): very good (a very good herbicidal activity is given at values of at least 85) | herbicidal activity ([10]; 125 g/ha): very good (a very good herbicidal activity is given at values of at least 85)

Nc1nc(Nc2c(F)c(F)nc(F)c2F)nc(C2CCCCC2)n1 [Example 59]
herbicidal activity ([9]; 250 g/ha): very good (a very good herbicidal activity is given at values of at least 85) | herbicidal activity ([10]; 250 g/ha): very good (a very good herbicidal activity is given at values of at least 85)

CC(c1nc(N)nc(Nc2c(F)c(F)nc(F)c2F)n1)C1CC1 (stereo not shown) [Example 60]
herbicidal activity [11]: very good (a very good herbicidal activity is given at values of at least 85) | herbicidal activity ([5]; 500 g/ha): very good (a very good herbicidal activity is given at values of at least 85) | herbicidal activity ([6]; 500 g/ha): very good (a very good herbicidal activity is given at values of at least 85)

Nc1nc(Nc2c(F)c(F)nc(F)c2F)nc(C2(F)CCC2)n1 [Example 70]
herbicidal activity ([8]; 1000 g/ha): good (a good herbicidal activity is given at values of at least 70) | herbicidal activity ([4]; 1000 g/ha): very good (a very good herbicidal activity is given at values of at least 85)
